Data: the NIST ThermoML archive (doi:10.1021/je060228n)

Columns and labels:
[1] = refractive index (Na D-line) (dimensionless); conditions: 101.33 kPa, Liquid
[2] = for surface tension liquid-gas: Drop weight; for mass density / speed of sound / viscosity: Liquid
[3] = xn = mol fraction of the nth substance listed; conditions: 101 kPa, Liquid
[4] = refractive index (Na D-line) (dimensionless); xn = mol fraction of the nth substance listed; conditions: 298.15 K, 101 kPa, Liquid

CCOS(=O)(=O)[O-].CCn1cc[n+](C)c1 [1-ethyl-3-methylimidazolium ethyl sulfate]
Conditions | refractive index, [1] | surface tension liquid-gas, [2] [mN/m]
288.15 K | 1.48197 | 47.91
293.15 K | 1.48072 | 47.39
298.15 K | 1.4794 | 46.96
303.15 K | 1.47803 | 46.58
308.15 K | 1.47669 | 46.23
313.15 K | 1.47535 | 45.84
318.15 K | 1.47397 | –
323.15 K | 1.47259 | –
328.15 K | 1.47124 | –
333.15 K | 1.46989 | –
338.15 K | 1.46851 | –
343.15 K | 1.46718 | –

[2], 101.33 kPa
Conditions | mass density [kg/m3] | speed of sound [m/s] | viscosity [mPa·s]
288.15 K | 1244.46 | 1703.9 | –
293.15 K | 1241 | 1691.4 | –
298.15 K | 1237.63 | 1679 | 97.58
303.15 K | 1234.25 | 1666.6 | 76.67
308.15 K | 1230.88 | 1654 | 61.71
313.15 K | 1227.51 | 1641.6 | 50.01
318.15 K | 1224.15 | 1629.2 | 41.37
323.15 K | 1220.8 | 1616.8 | 34.46
328.15 K | 1217.47 | 1604.5 | 29.18
333.15 K | 1214.31 | 1591.3 | 24.96
338.15 K | 1210.82 | 1578.9 | 21.45
343.15 K | 1207.51 | 1566.4 | 18.72

CCOS(=O)(=O)[O-].CCn1cc[n+](C)c1 [1-ethyl-3-methylimidazolium ethyl sulfate] + CCO
[3]
Conditions | mass density, 298.15 K [kg/m3] | mass density, 313.15 K [kg/m3] | mass density, 328.15 K [kg/m3] | speed of sound, 298.15 K [m/s] | speed of sound, 313.15 K [m/s] | speed of sound, 328.15 K [m/s] | viscosity, 298.15 K [mPa·s] | viscosity, 313.15 K [mPa·s] | viscosity, 328.15 K [mPa·s]
x2 = 0 | 1237.63 | 1227.51 | 1217.47 | 1679 | 1641.6 | 1604.5 | 97.58 | 50.01 | 29.18
x2 = 0.0623 | 1228.9 | 1218.87 | 1208.77 | 1669.8 | 1633.6 | 1594.8 | 79.12 | 42.18 | 25.36
x2 = 0.23 | 1201.26 | 1191.17 | 1181.01 | 1626.6 | 1590.1 | 1551 | 44.93 | 26.19 | 16.84
x2 = 0.4113 | 1161.68 | 1151.32 | 1140.94 | 1564 | 1527.7 | 1488.2 | 22.96 | 14.72 | 10.14
x2 = 0.5393 | 1123.63 | 1113 | 1102.3 | 1506.5 | 1459.1 | 1431.1 | 13.58 | 8.577 | 6.204
x2 = 0.6788 | 1066.7 | 1055.7 | 1044.7 | 1428.8 | 1381 | 1350.7 | 7.224 | 5.208 | 3.934
x2 = 0.7662 | 1017.9 | 1006.6 | 995.2 | 1367.2 | 1318.9 | 1286.7 | 4.598 | 3.413 | 2.642
x2 = 0.8303 | 973 | 961.3 | 949.6 | 1315.6 | 1266.2 | 1232.2 | 3.178 | 2.398 | 1.874
x2 = 0.9554 | 848.6 | 836.2 | 823.5 | 1195.9 | 1143.3 | 1102.6 | 1.573 | 1.2 | 0.941
x2 = 0.964 | 837.4 | 824.7 | 812 | 1186.2 | 1132.7 | 1091.4 | 1.427 | 1.095 | 0.862
x2 = 0.9863 | 806.1 | 793.4 | 780.3 | 1160.7 | 1106.2 | 1063.1 | 1.271 | 0.971 | 0.759

[4]
Conditions | refractive index
x2 = 0 | 1.4794
x2 = 0.0623 | 1.47717
x2 = 0.23 | 1.47031
x2 = 0.4113 | 1.46017
x2 = 0.5393 | 1.45018
x2 = 0.6788 | 1.43532
x2 = 0.7662 | 1.42247
x2 = 0.8303 | 1.41052
x2 = 0.9554 | 1.37687
x2 = 0.964 | 1.37373
x2 = 0.9863 | 1.36514

CCOS(=O)(=O)[O-].CCn1cc[n+](C)c1 [1-ethyl-3-methylimidazolium ethyl sulfate] + O
[3]
Conditions | mass density, 298.15 K [kg/m3] | mass density, 313.15 K [kg/m3] | mass density, 328.15 K [kg/m3] | speed of sound, 298.15 K [m/s] | speed of sound, 313.15 K [m/s] | speed of sound, 328.15 K [m/s] | viscosity, 298.15 K [mPa·s] | viscosity, 313.15 K [mPa·s] | viscosity, 328.15 K [mPa·s]
x2 = 0 | 1237.63 | 1227.51 | 1217.47 | 1679.1 | 1641.6 | 1604.5 | 97.58 | 50.01 | 29.18
x2 = 0.0715 | 1236.14 | 1225.97 | 1215.87 | 1687 | 1640.1 | 1617.1 | 82.01 | 43.36 | 25.8
x2 = 0.2089 | 1232.72 | 1222.53 | 1212.4 | 1696.7 | 1660.8 | 1622.1 | 57.84 | 32.09 | 19.82
x2 = 0.3227 | 1229 | 1218.87 | 1208.82 | 1707.2 | 1671 | 1631.7 | 42.89 | 24.76 | 15.8
x2 = 0.5041 | 1220 | 1209.82 | 1199.54 | 1729 | 1692.6 | 1652.9 | 24.74 | 15.11 | 10.02
x2 = 0.5975 | 1212.9 | 1202.43 | 1192.02 | 1741.6 | 1703.9 | 1665.9 | 17.52 | 10.98 | 7.45
x2 = 0.7441 | 1192.2 | 1181.55 | 1170.8 | 1773 | 1734.5 | 1695.3 | 10.58 | 6.715 | 4.622
x2 = 0.854 | 1159.2 | 1146.19 | 1135.3 | 1792.6 | 1749.2 | 1704.3 | 5.848 | 3.818 | 2.596
x2 = 0.9506 | 1084.4 | 1076.1 | 1066.9 | 1709.2 | 1693.1 | 1668.1 | 2.316 | 1.608 | 1.189

[4]
Conditions | refractive index
x2 = 0 | 1.4794
x2 = 0.0715 | 1.47827
x2 = 0.2089 | 1.476
x2 = 0.3227 | 1.47344
x2 = 0.5041 | 1.46726
x2 = 0.5975 | 1.46243
x2 = 0.7441 | 1.44916
x2 = 0.854 | 1.42825
x2 = 0.9506 | 1.38383

CCO [ethanol]
Conditions | refractive index
[1], 298.15 K | 1.36023

[2], 101 kPa
Conditions | mass density [kg/m3] | speed of sound [m/s] | viscosity [mPa·s]
298.15 K | 785.46 | 1146.3 | 1.082
313.15 K | 772 | 1092.8 | 0.827
328.15 K | 758.6 | 1043.2 | 0.641

CCO [ethanol] + CCOS(=O)(=O)[O-].CCn1cc[n+](C)c1
[3], x1 = 1
Conditions | mass density [kg/m3] | speed of sound [m/s] | viscosity [mPa·s]
298.15 K | 785.46 | 1146.3 | 1.082
313.15 K | 772 | 1092.8 | 0.827
328.15 K | 758.6 | 1043.2 | 0.641

Conditions | refractive index
[4], x1 = 1 | 1.36023

O [water] + CCOS(=O)(=O)[O-].CCn1cc[n+](C)c1
[3], x1 = 1
Conditions | mass density [kg/m3] | speed of sound [m/s] | viscosity [mPa·s]
298.15 K | – | – | 0.89
313.15 K | – | – | 0.653
328.15 K | 985.7 | 1545.4 | 0.504

Conditions | refractive index
[4], x1 = 1 | 1.33251
